Columns and labels:
[1] = system: Pseudomonas aeruginosa (ATCC 15442); assay: Minimum Inhibitory Concentration test, bacteriostatic responses; type: cell-based; conditions: for Minimum Inhibitory Concentration P. aeruginosa: lowest concentration completely inhibiting growth in all three replicates; for Bacteriostatic response P. aeruginosa: triplicate
Experimental: (§1) [table] [table] Add 0.1 ml of inoculum to each 20×150 mm test tube containing 9.0 ml of Nutrient or Sabouraud Dextrose Broth and 1 ml of a aqueous dilution of the test sample. Vortex tube to mix then incubate bacteria inoculated tubes at 36±1° C. for a minimum of 48±1 hour and fungi inoculated tubes at 28° C. for 7-10 days. Following incubation, observe tubes visually for the presence of growth (i.e. turbidity). Perform all testing in triplicate.

[2] = system: Staphylococcus aureus (ATCC 6538); assay: as above; type: cell-based; conditions: for Bacteriostatic response S. aureus: triplicate; for Minimum Inhibitory Concentration S. aureus: lowest concentration completely inhibiting growth in all three replicates
Experimental: as §1

[3] = system: Escherichia coli (ATCC 11229); assay: as above; type: cell-based; conditions: for Bacteriostatic response E. coli: triplicate; for Minimum Inhibitory Concentration E. coli: lowest concentration completely inhibiting growth in all three replicates
Experimental: as §1

[4] = system: Aspergillus niger (ATCC 16404); assay: Minimum Inhibitory Concentration test, fungistatic responses; type: cell-based; conditions: for Fungistatic response A. niger: triplicate; for Minimum Inhibitory Concentration A. niger: lowest concentration completely inhibiting growth in all three replicates
Experimental: as §1

[5] = system: Candida albicans (ATCC 10231); assay: as above; type: cell-based; conditions: for Fungistatic response C. albicans: triplicate; for Minimum Inhibitory Concentration C. albicans: lowest concentration completely inhibiting growth in all three replicates
Experimental: as §1

[6] = Draves wetting measurement; type: physicochemical; conditions: 0.1% in water
Description: (§2) In the following examples, all amounts are stated in percent by weight of active material unless indicated otherwise. Surface tension measurements, Draves wetting measurements, and Ross Miles foaming initial and final measurements all were taken at 0.1% concentration of the surfactant blend in water.

[7] = Surface tension measurement; type: physicochemical; conditions: 0.1% surfactant blend in water
Description: as §2

[8] = Ross Miles foaming, initial and final; type: physicochemical; conditions: 0.1% in water
Description: as §2

[9] = system: Psudomonas aeruginosa (ATCC 15442); assay: Time-Kill; type: cell-based, Pseudomonas aeruginosa; conditions: 100 ppm active
Experimental: (§3) Formulation 11-1 was prepared as described above and evaluated at two different concentrations against various microorganisms to determine the time required to kill certain levels of the microorganisms. Control formulation 11-2 was also tested in this assay at the same concentrations.
(§4) Preparation: Transfer each organism from stock slant to sterile Nutrient Broth (NB) tube. Incubate NB tubes at 36±1° C. After 24 hours incubation, subculture each broth culture to fresh tube of sterile NB. Repeat subculturing procedure at 24 hour intervals. Use cultures for testing after at least three consecutive 24 hour subculturings.
(§5) 2. Dispense 4.9 gram aliquots of each sample* into sterile medication tubes. Use one tube per organism. (*log10 reductions can be calculated by subtracting the log10 of the average inoculum count from the log10 of the test substance count after 30 seconds, 1 minute or 5 minutes contact)
(§6) 3. Centrifuge 18-24 hour broth culture of each test organism. Decant supernatant and re-suspend in equal volume of phosphate buffer. Re-centrifuge and re-suspend in phosphate buffer. Prepare 1:10 dilution of each culture suspension by adding 2 ml of culture to 18 ml of phosphate buffer. Mix by vortexing. Use this 1:10 dilution as the test inoculum.
(§7) 4. Perform initial plate count of the test inoculum by adding 0.1 ml of the inoculum to 4.9 grams of sterile distilled water. Vortex to mix, then remove 1 ml of solution and dilute in D/E Broth to 1:100,000. Plate 1:1,000, 1:10,000, and 1:100,000 dilutions in Microbial Content Agar (Difco).
(§8) 5. Begin testing of substances by adding 0.1 ml of test inoculum to sample tube. Vortex to mix. After 30 seconds, remove 1 ml of sample and add to 9 mls of DE broth, rinse pipette 5 times with sample and vortex. Remove additional 1 ml sample after 1 and 5 minutes contact and add to 9 mls of D/E Broth. Dilute each tube to 1:10,000 in D/E Broth and plate 1:1,000, 1:10,000, and 1:100,000 dilutions in Microbial Content Agar.
(§9) 7. After completion of step 6, perform final plate count of inoculum suspension by adding 0.1 ml of the suspension to 4.9 grams of sterile distilled water. Vortex to mix then remove 1 ml of solution and dilute in D/E Broth to 1:100,000. Plate 1:1,000, 1:10,000, and 1:100,000 dilutions in Microbial Content Agar (Difco).
(§10) 8. Incubate plates at 36±1° C. for 48 hours.
(§11) 9. Record all test results and calculate percent kills* after 30 seconds, 1 minute, and 5 minutes contact as follows: (*log10 reductions can be calculated by subtracting the log10 of the average inoculum count from the log10 of the test substance count after 30 seconds, 1 minute or 5 minutes contact) [formula]
(§12) X=Average of initial and final inoculum control counts, org/ml (Note: The difference between initial and final inoculum counts must be≦1 log for a valid study)
(§13) Y=Test substance bacterial count as org/ml after 30 seconds, 1 minute, or 5 minutes contact

Pa (ATCC 9027) = assay: Time-Kill; type: cell-based, Pseudomonas aeruginosa; conditions: 50 ppm active
Experimental: as §3, §4, §5, §6, §7, §8, §9, §10, §11, §12, §13

[10] = system: Staphylococcus aureus (ATCC 6538); assay: Time-Kill; type: cell-based; conditions: 100 ppm active
Experimental: as §3, §4, §5, §6, §7, §8, §9, §10, §11, §12, §13

[11] = system: Candida albicans (ATCC 10231); assay: Time-Kill; type: cell-based; conditions: 100 ppm active
Experimental: as §3, §4, §5, §6, §7, §8, §9, §10, §11, §12, §13

[12] = system: Escherichia coli (ATCC 11229); assay: Time-Kill; type: cell-based; conditions: 100 ppm active
Experimental: as §3, §4, §5, §6, §7, §8, §9, §10, §11, §12, §13

[13] = system: Aspergillus niger (ATCC 6275); assay: Time-Kill; type: cell-based; conditions: 100 ppm active
Experimental: as §3, §4, §5, §6, §7, §8, §9, §10, §11, §12, §13

Compound: CCCCCCCCCCCC[N+](C)(C)[O-] [AMMONYX-LO, Lauramine oxide]
- Minimum Inhibitory Concentration P. aeruginosa [1]: >1000 ppm, active
- Bacteriostatic response S. aureus ([2]; 100 ppm active): 000
- Bacteriostatic response S. aureus ([2]; 1000 ppm active): 000
- Minimum Inhibitory Concentration S. aureus [2]: 100 ppm, active
- Bacteriostatic response E. coli ([3]; 1000 ppm active): 000
- Minimum Inhibitory Concentration E. coli [3]: 1000 ppm, active
- Fungistatic response A. niger ([4]; 100 ppm active): 000
- Fungistatic response A. niger ([4]; 1000 ppm active): 000
- Minimum Inhibitory Concentration A. niger [4]: 100 ppm, active
- Fungistatic response C. albicans ([5]; 100 ppm active): 000
- Fungistatic response C. albicans ([5]; 1000 ppm active): 000
- Minimum Inhibitory Concentration C. albicans [5]: 100 ppm, active

Compound: CCCCCCCCS(=O)(=O)[O-].[Na+] [BIO-TERGE PAS-8S, Sodium 1-octane sulfonate]
- Minimum Inhibitory Concentration P. aeruginosa [1]: >1000 ppm, active
- Minimum Inhibitory Concentration S. aureus [2]: >1000 ppm, active
- Minimum Inhibitory Concentration E. coli [3]: >1000 ppm, active
- Minimum Inhibitory Concentration A. niger [4]: >1000 ppm, active
- Minimum Inhibitory Concentration C. albicans [5]: >1000 ppm, active

Compound: CCCCCCCCCC[N+](C)(C)C.[Cl-] [QC10, Decyltrimethylammonium chloride]
- Wetting [6]: 100 s
- Surface Tension [7]: 39.28 mN/m
- Foaming Final [8]: 0/0 cm
- Foaming Initial [8]: 0/0 cm

Compound: Cocamidopropyl betaine [Amphosol ® CA]
- Wetting [6]: 100 s
- Surface Tension [7]: 36.75 mN/m
- Foaming Final [8]: 12.9 cm
- Foaming Initial [8]: 13 cm

Compound: N-Alkyl dimethyl benzyl ammonium chloride [BTC 65NF]
- Bacteriostatic response P. aeruginosa ([1]; 100 ppm active): 000
- Bacteriostatic response P. aeruginosa ([1]; 1000 ppm active): 000
- Minimum Inhibitory Concentration P. aeruginosa [1]: 100 ppm, active
- Bacteriostatic response S. aureus ([2]; 1 ppm active): 000
- Bacteriostatic response S. aureus ([2]; 10 ppm active): 000
- Bacteriostatic response S. aureus ([2]; 100 ppm active): 000
- Bacteriostatic response S. aureus ([2]; 1000 ppm active): 000
- Minimum Inhibitory Concentration S. aureus [2]: <1 ppm, active
- Bacteriostatic response E. coli ([3]; 10 ppm active): 000
- Bacteriostatic response E. coli ([3]; 100 ppm active): 000
- Bacteriostatic response E. coli ([3]; 1000 ppm active): 000
- Minimum Inhibitory Concentration E. coli [3]: 10 ppm, active
- Fungistatic response A. niger ([4]; 10 ppm active): 000
- Fungistatic response A. niger ([4]; 100 ppm active): 000
- Fungistatic response A. niger ([4]; 1000 ppm active): 000
- Minimum Inhibitory Concentration A. niger [4]: 10 ppm, active
- Fungistatic response C. albicans ([5]; 10 ppm active): 000
- Fungistatic response C. albicans ([5]; 100 ppm active): 000
- Fungistatic response C. albicans ([5]; 1000 ppm active): 000
- Minimum Inhibitory Concentration C. albicans [5]: 10 ppm, active
- Percent Kill Pa ([9]; 5 Minutes contact): 99.9 % K
- Percent Kill Pa ([9]; 30 Seconds contact): 99.9 % K
- Percent Kill Pa ([9]; 60 Seconds contact): 99.9 % K
- Percent Kill Pa (ATCC 9027) (Pa (ATCC 9027); 5 Minutes contact): >99.9 % K
- Percent Kill Pa (ATCC 9027) (Pa (ATCC 9027); 30 Seconds contact): 99.9 % K
- Percent Kill Pa (ATCC 9027) (Pa (ATCC 9027); 60 Seconds contact): >99.9 % K
- Percent Kill Sa ([10]; 5 Minutes contact): >99.8 % K
- Percent Kill Sa ([10]; 30 Seconds contact): 65.5 % K
- Percent Kill Sa ([10]; 60 Seconds contact): 83.6 % K
- Percent Kill Ca ([11]; 5 Minutes contact): >99.7 % K
- Percent Kill Ca ([11]; 30 Seconds contact): >99.7 % K
- Percent Kill Ca ([11]; 60 Seconds contact): >99.7 % K
- Percent Kill Ec ([12]; 5 Minutes contact): >99.9 % K
- Percent Kill Ec ([12]; 30 Seconds contact): >99.9 % K
- Percent Kill Ec ([12]; 60 Seconds contact): >99.9 % K
- Percent Kill An ([13]; 5 Minutes contact): 92.3 % K
- Percent Kill An ([13]; 30 Seconds contact): 0.0 % K
- Percent Kill An ([13]; 60 Seconds contact): 22.5 % K

— US20040071653A1, “Antimicrobial ternary surfactant blend comprising cationic, anionic, and bridging surfactants, and methods of preparing same” (Stepan Company, priority 2000, published 2004)
